Consider 23 molecules from PubChem BioAssay AID330 (DTP/NCI, 2004).

Values joined by “and” are separate entries in the source; they are usually repeats but may differ in a detail not shown here. Identical values can stand only once. Inconclusive results and toxic doses are left out.

The experiment has as its system P388 leukemia ip, CD2F1 mice, survival T/C. Briefly: NCI In Vivo Anticancer Drug Screen. Data for tumor model P388 Leukemia (intraperitoneal) in CD2F1 (CDF1) mice. The conditions noted are these: endpoint: median survival time, higher = longer survival. A digest of the protocol: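 Mice carrying the transplanted tumor received test compound or vehicle. Survival was recorded in each group, and the value is the treated-group measurement divided by that of the vehicle-treated control group.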

Setting [1] is: dose: 100.0 mg/kg/injection, schedule: Q01DX009 (ip), vehicle: saline with Tween-80.
The mark [2] stands for this setting: dose: 50.0 mg/kg/injection, schedule: Q01DX005 (ip), vehicle: saline with Tween-80.
Setting [3] is: dose: 100.0 mg/kg/injection, schedule: Q01DX005 (ip), vehicle: saline with Tween-80.
Where [4] appears, read: dose: 200.0 mg/kg/injection, schedule: Q01DX005 (ip), vehicle: saline with Tween-80.
[5] abbreviates: dose: 120.0 mg/kg/injection, schedule: Q01DX005 (ip), vehicle: saline with Tween-80.
Where [6] appears, read: dose: 50.0 mg/kg/injection, schedule: Q01DX009 (ip), vehicle: saline.
The mark [7] stands for this setting: dose: 100.0 mg/kg/injection, schedule: Q01DX009 (ip), vehicle: saline.
Where [8] appears, read: dose: 200.0 mg/kg/injection, schedule: Q01DX009 (ip), vehicle: saline.

In the case of `[Cl][Pt+2][Cl].[NH-]C(c1ccccc1)C([NH-])c1ccccc1` (stereo not given), the T/C is, setting by setting: (dose: 1.56 mg/kg/injection, schedule: Q04DX002 (ip), vehicle: saline with Tween-80) 112 % of control; (dose: 3.12 mg/kg/injection, schedule: Q04DX002 (ip), vehicle: saline with Tween-80) 103 % of control; (dose: 3.13 mg/kg/injection, schedule: Q04DX002 (ip), vehicle: saline with Tween-80) 111 % of control; (dose: 6.25 mg/kg/injection, schedule: Q04DX002 (ip), vehicle: saline with Tween-80) 117 % of control [middle of 4 runs].

Turning to `N#CC(CCCCl)(c1ccccc1)c1ccccc1`, the T/C runs as follows: (dose: 100.0 mg/kg/injection, schedule: Q04DX002 (ip), vehicle: Klucel (hydroxypropylcellulose) (HPC)) 107 % of control; (dose: 200.0 mg/kg/injection, schedule: Q04DX002 (ip), vehicle: Klucel (hydroxypropylcellulose) (HPC)) 108 % of control; (dose: 400.0 mg/kg/injection, schedule: Q04DX002 (ip), vehicle: Klucel (hydroxypropylcellulose) (HPC)) 108 % of control.

Regarding `N#Cc1[nH]nc2nc[nH]c(=O)c12`, the T/C was 114 % of control (dose: 100.0 mg/kg/injection, schedule: Q04DX002 (ip), vehicle: water) and 113 % of control (dose: 200.0 mg/kg/injection, schedule: Q04DX002 (ip), vehicle: water).

Regarding `CC(C)(C)N=C(CCNC1CCCCC1)Nc1c(Cl)cccc1Cl`, the T/C (dose: 50.0 mg/kg/injection, schedule: Q01DX009 (ip), vehicle: saline with Tween-80) was 100 % of control and the T/C under setting [1] was 106 % of control.

Turning to `O=C1Nc2c(Cl)cc(Cl)cc2/C1=N/N=C/c1ccco1`, the T/C under setting [2] was 101 % of control, the T/C under setting [3] was 104 % of control and the T/C under setting [4] was 104 % of control.

`C=CCc1cc(C(CC)C(CC)c2ccc(OCCN(CC)CC)c(CC=C)c2)ccc1OCCN(CC)CC` (stereo not given): the T/C is, setting by setting: under setting [2], 95 % of control; under setting [3], 98 % of control; under setting [4], 101 % of control.

`CN=C(N)NN=C(c1ccc(C)cc1)c1ccc(C)cc1`: the T/C reads like this: (dose: 12.5 mg/kg/injection, schedule: Q04DX002 (ip), vehicle: saline with Tween-80) 91 % of control; (dose: 25.0 mg/kg/injection, schedule: Q04DX002 (ip), vehicle: saline with Tween-80) 104 % of control; (dose: 100.0 mg/kg/injection, schedule: Q04DX002 (ip), vehicle: saline with Tween-80) 96 % of control; (dose: 200.0 mg/kg/injection, schedule: Q04DX002 (ip), vehicle: saline with Tween-80) 100 % of control.

Turning to `CC(=O)SC1(C(C(N)=S)c2ccccc2)CCN(C)CC1` (stereo not given), the T/C runs as follows: (dose: 50.0 mg/kg/injection, schedule: Q01DX005 (ip), vehicle: saline) 105 % of control; (dose: 100.0 mg/kg/injection, schedule: Q01DX005 (ip), vehicle: saline) 111 % of control; (dose: 200.0 mg/kg/injection, schedule: Q01DX005 (ip), vehicle: saline) 101 % of control.

With `CCO/C=C1/N=C(c2ccc(Cl)c([N+](=O)[O-])c2)OC1=O`, the T/C is 108 % of control (dose: 60.0 mg/kg/injection, schedule: Q01DX005 (ip), vehicle: saline with Tween-80); 106 % of control under setting [5]; 107 % of control (dose: 240.0 mg/kg/injection, schedule: Q01DX005 (ip), vehicle: saline with Tween-80).

With `COc1ccc([N+](=O)[O-])cc1Nc1c2ccccc2nc2ccccc12`, the T/C by setting is: (dose: 50.0 mg/kg/injection, schedule: Q01DX009 (ip), vehicle: suspension in saline) 100 % of control; (dose: 100.0 mg/kg/injection, schedule: Q01DX009 (ip), vehicle: suspension in saline) 110 % of control; (dose: 200.0 mg/kg/injection, schedule: Q01DX009 (ip), vehicle: suspension in saline) 101 % of control.

On to `CCN(CC)CCNc1cccc2c(SC)ccnc12`, for which the T/C was 101 % of control under setting [2], 104 % of control under setting [3] and 101 % of control under setting [4].

As to `[Br][Ga]([Br])[Br]`, the T/C was 115 % of control (dose: 25.0 mg/kg/injection, schedule: Q01DX009 (ip), vehicle: saline); 100 % of control under setting [6]; 100 % of control (dose: 100.0 mg/kg/injection, schedule: Q04DX003 (ip), vehicle: saline sonified).

Regarding `COC1=CC(=O)C(CO)=CC1=O`, the T/C (dose: 3.12 mg/kg/injection, schedule: Q01DX009 (ip), vehicle: saline) is 104 % of control; the T/C (dose: 6.25 mg/kg/injection, schedule: Q01DX009 (ip), vehicle: saline) was 103 % of control and 104 % of control; the T/C (dose: 12.5 mg/kg/injection, schedule: Q01DX009 (ip), vehicle: saline) is 104 % of control and 91 % of control.

Regarding `COc1ccc2nc3cc(Cl)ccc3c(NCCCCCCCCNc3c4ccc(Cl)cc4nc4ccc(OC)cc34)c2c1`, the T/C (dose: 0.62 mg/kg/injection, schedule: Q01DX009 (ip), vehicle: other) is 101 % of control; the T/C (dose: 1.25 mg/kg/injection, schedule: Q01DX009 (ip), vehicle: other) was 101 % of control; the T/C (dose: 2.5 mg/kg/injection, schedule: Q01DX009 (ip), vehicle: other) was 104 % of control; the T/C (dose: 5.0 mg/kg/injection, schedule: Q01DX009 (ip), vehicle: other) is 100 % of control; the T/C (dose: 10.0 mg/kg/injection, schedule: Q01DX009 (ip), vehicle: other) is 97 % of control; the T/C (dose: 20.0 mg/kg/injection, schedule: Q01DX009 (ip), vehicle: other) is 109 % of control.

On to `NNc1nncn1N`, for which the T/C reads like this: under setting [6], 104 % of control and 91 % of control; under setting [7], 104 % of control and 89 % of control; under setting [8], 86 % of control and 95 % of control.

With `COC(=O)C1C(=O)CC2N(C)C1C(C)(C)C2(C)C` (stereo not given), the T/C under setting [5] was 150 % of control.

Take `OC1OC2CCC3C2C2C1C1C4CCC5OC(O)C6C3C2C1C6C54` (stereo not given): the T/C by setting is: (dose: 20.0 mg/kg/injection, schedule: Q01DX005 (ip), vehicle: saline with Tween-80) 97 % of control; (dose: 40.0 mg/kg/injection, schedule: Q01DX005 (ip), vehicle: saline with Tween-80) 100 % of control; (dose: 80.0 mg/kg/injection, schedule: Q01DX005 (ip), vehicle: saline with Tween-80) 100 % of control.

Turning to `CCC(C)C(NC(=O)CCl)C(=O)O` (stereo not given), the T/C is, setting by setting: under setting [6], 99 % of control; under setting [7], 96 % of control; under setting [8], 101 % of control.

Take `O=[N+]([O-])c1cccnc1S(=O)(=O)c1ncccn1`: the T/C is 100 % of control (dose: 6.25 mg/kg/injection, schedule: Q01DX009 (ip), vehicle: Klucel (hydroxypropylcellulose) (HPC)); 110 % of control (dose: 12.5 mg/kg/injection, schedule: Q01DX009 (ip), vehicle: Klucel (hydroxypropylcellulose) (HPC)); 96 % of control (dose: 25.0 mg/kg/injection, schedule: Q01DX009 (ip), vehicle: Klucel (hydroxypropylcellulose) (HPC)).

As to `CC1(O)C=CC(=O)C=C1`, the T/C is, setting by setting: (dose: 1.56 mg/kg/injection, schedule: Q01DX009 (ip), vehicle: distilled water + Tween-80) 103 % of control; (dose: 3.13 mg/kg/injection, schedule: Q01DX009 (ip), vehicle: distilled water + Tween-80) 102 % of control; (dose: 6.25 mg/kg/injection, schedule: Q01DX009 (ip), vehicle: distilled water + Tween-80) 109 % of control; (dose: 12.5 mg/kg/injection, schedule: Q01DX009 (ip), vehicle: distilled water + Tween-80) 109 % of control.

In the case of `Cc1ccc(S(=O)(=O)NNC(=O)c2ccccc2Nc2cccc(Br)c2)cc1`, the T/C (dose: 100.0 mg/kg/injection, schedule: Q01DX001 (ip), vehicle: Klucel (hydroxypropylcellulose) (HPC)) is 97 % of control; the T/C (dose: 200.0 mg/kg/injection, schedule: Q01DX001 (ip), vehicle: Klucel (hydroxypropylcellulose) (HPC)) is 97 % of control; the T/C (dose: 400.0 mg/kg/injection, schedule: Q01DX001 (ip), vehicle: Klucel (hydroxypropylcellulose) (HPC)) is 98 % of control.

As for `COC(=O)c1c(C)cc(OC(=O)c2c(C)cc(O)c(C=O)c2O)c(C)c1O`, the T/C was 104 % of control (dose: 0.25 mg/kg/injection, schedule: Q01DX009 (ip), vehicle: saline with Tween-80); 92 % of control (dose: 0.5 mg/kg/injection, schedule: Q01DX009 (ip), vehicle: saline with Tween-80); 104 % of control (dose: 1.0 mg/kg/injection, schedule: Q01DX009 (ip), vehicle: saline with Tween-80); 95 % of control under setting [6]; 90 % of control under setting [7]; 95 % of control under setting [8].

Turning to `CC1CN1P(=S)(Oc1ccccc1)N1CC1C` (stereo not given), the T/C was 110 % of control under setting [1]; 109 % of control (dose: 100.0 mg/kg/injection, schedule: Q04DX003 (ip), vehicle: saline with Tween-80); 118 % of control (dose: 200.0 mg/kg/injection, schedule: Q04DX003 (ip), vehicle: saline with Tween-80); 122 % of control (dose: 400.0 mg/kg/injection, schedule: Q04DX003 (ip), vehicle: saline with Tween-80).
